In US11286268B1, “EIF4E-inhibiting compounds and methods” (EFFECTOR THERAPEUTICS, INC., priority 2019, dated 2022):
Where two headings read alike, the source gives them in different places.

Biological target: recombinant eIF4E (Homo sapiens (Human), UniProt P06730)
Assay: Fluorescence polarization competition assay for eIF4E binding potency
How it was run: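 FP readout; IC50 fit from 8-point, 3-fold series. 75 nM eIF4E + 20 nM ATTO-550-labelled m7GDP probe, Tris pH 7.5/NaCl/DTT/Tween buffer, 1% DMSO final. 30 min RT equilibration, light-protected.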

[1] = fluorescence polarization competition, 75 nM recombinant eIF4E, 20 nM EDA-m7GDP-ATTO-550, IC50 class, read-out: elF4E FP
[2] = inhibition of eIF4E/EDA-m7GDP-ATTO-550 binding by 50%, Table 4B calculated values, read-out: IC50
[3] = inhibition of eIF4E/EDA-m7GDP-ATTO-550 binding, calculated IC50 values, Table 4B, read-out: IC50

recombinant eIF4E, sequence (P06730 whole entry): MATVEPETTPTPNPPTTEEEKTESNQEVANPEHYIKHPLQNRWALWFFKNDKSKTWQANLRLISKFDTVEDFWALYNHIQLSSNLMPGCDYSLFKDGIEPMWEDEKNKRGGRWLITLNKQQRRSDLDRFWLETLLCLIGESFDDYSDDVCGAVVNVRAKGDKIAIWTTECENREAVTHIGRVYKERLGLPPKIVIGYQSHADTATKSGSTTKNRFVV

Cc1cc(-c2cc(Cl)ccc2OCCn2c(C)nc3c(C)nc(-c4cnc(N)cc4F)c(C#N)c3c2=O)c2scc(C(=O)O)c2n1 [compound 874]
IC50 [1]: < 0.05 µM | IC50 [2]: 0.0415 µM

Cc1cc(-c2cc(Cl)ccc2OCCn2c(C)nc3cc(Cl)c(N4CCCC4(C)C)c(C#N)c3c2=O)c2scc(C(=O)O)c2n1 [compound 920]
IC50 [1]: < 0.05 µM | IC50 [2]: 0.00576 µM

CCC#Cc1c(C(=O)O)cccc1-c1cc(Cl)ccc1OCCn1c(C(F)F)nc2cccc(C#N)c2c1=O [compound 1987]
IC50 [3]: 1.29 µM

Cc1nc2c(C(F)(F)F)cc(N3CCN(C)CC3)nc2c(=O)n1CC#Cc1ccc(Cl)cc1-c1ccnc2c(C(=O)O)csc12 [compound 1981]
IC50 [3]: 0.0238 µM

Cc1nc2cnc(N3CCN(C4(C)CC4)CC3)c(C#N)c2c(=O)n1CCOc1ccc(Cl)cc1-c1ccnc2c(C(=O)O)csc12 [compound 1365]
IC50 [3]: 0.0341 µM

Cc1nc2cc(C(F)(F)F)c(CN(C)C)cc2c(=O)n1CCOc1ccc(Cl)cc1-c1ccnc2c(C(=O)O)csc12 [compound 408]
IC50 [1]: < 0.05 µM | IC50 [2]: 0.0311 µM

Cc1cc(-c2cc(Cl)ccc2OCCn2c(C)nc3cc(C(F)(F)F)c(N4CCC(Cl)CC4)c(C#N)c3c2=O)c2scc(C(=O)O)c2n1 [compound 991]
IC50 [1]: < 0.05 µM | IC50 [2]: 0.0121 µM

Cc1nc2cnc(N(C)C3CCN(CC4(C(F)(F)F)CCC4)CC3)c(C#N)c2c(=O)n1CC#Cc1ccc(Cl)cc1-c1ccnc2c(C(=O)O)csc12 [compound 1588]
IC50 [3]: 0.0264 µM

Cc1nc2cc(C(F)(F)F)c(OCCN3CCNCC3)c(C#N)c2c(=O)n1CCOc1ccc(Cl)cc1-c1ccnc2ccsc12 [compound 853]
IC50 [1]: < 0.05 µM | IC50 [2]: 0.0319 µM

N#Cc1cc2c(=O)n(CCOc3ccc(Cl)cc3-c3ccc(C(=O)O)s3)cnc2cn1 [compound 53]
IC50 [1]: 0.05 to 1 µM | IC50 [2]: 0.931 µM

Cc1nc2cc(C(F)F)c(CN(C)C)c(C#N)c2c(=O)n1CCOc1ccc(Cl)cc1-c1ccnc2c(C(=O)O)csc12 [compound 530]
IC50 [1]: < 0.05 µM | IC50 [2]: 0.00665 µM

Cc1cc(-c2cc(Cl)ccc2OCCn2c(C)nc3cnc(C4CCC4)c(C#N)c3c2=O)c2scc(C(=O)O)c2n1 [compound 912]
IC50 [1]: < 0.05 µM | IC50 [2]: 0.00898 µM

Cc1nc2cc(C#N)cc(C#N)c2c(=O)n1CC#Cc1ccc(Cl)cc1-c1ccnc2c(C(=O)O)csc12 [compound 258]
IC50 [1]: < 0.05 µM | IC50 [2]: 0.0377 µM

Cc1cc(-c2c(C(F)F)cc3nc(C)n(CCOc4ccc(Cl)cc4-c4cc(C)nc5c(C(=O)O)csc45)c(=O)c3c2C#N)ccn1 [compound 1386]
IC50 [3]: 0.0128 µM

Cc1cc(-c2cc(Cl)ccc2OCCn2c(C)nc3c(C)nc(-c4ccccc4Cl)c(C#N)c3c2=O)c2scc(C(=O)O)c2n1 [compound 482]
IC50 [1]: < 0.05 µM

O=C(O)c1cccc(-c2cc(Cl)ccc2OCCn2ccc3cnccc3c2=O)c1 [compound 5]
IC50 [1]: > 1 µM | IC50 [2]: 7.64 µM

Cc1nc2cc(C(F)(F)F)cc(C#N)c2c(=O)n1CCOc1ccc(C#N)cc1-c1ccnc2c(C(=O)O)csc12 [compound 287]
IC50 [1]: < 0.05 µM | IC50 [2]: 0.0478 µM

Cc1cc(-c2cc(Cl)ccc2OCCn2c(C)nc3cc(Cl)c(-c4cccnc4)c(C#N)c3c2=O)c2scc(C(=O)O)c2n1 [compound 653]
IC50 [1]: < 0.05 µM | IC50 [2]: 0.0227 µM

Cc1cc(-c2cc(Cl)ccc2OCCn2c(C)nc3c(ccc4cnncc43)c2=O)c2scc(C(=O)O)c2n1 [compound 671]
IC50 [1]: 0.05 to 1 µM | IC50 [2]: 0.0777 µM

Cc1nc2cc(OC(F)F)c(C(F)F)c(C#N)c2c(=O)n1CCOc1ccc(Cl)cc1-c1ccnc2c(C(=O)O)csc12 [compound 539]
IC50 [1]: < 0.05 µM | IC50 [2]: 0.0472 µM

Cc1nc2c(F)cc(S(C)(=O)=O)c(C#N)c2c(=O)n1CCOc1ccc(Cl)cc1-c1ccnc2c(C(=O)O)csc12 [compound 293]
IC50 [1]: 0.05 to 1 µM | IC50 [2]: 0.0639 µM

CCc1cc(-c2cc(Cl)ccc2OCCn2c(C)nc3cnc(N4CCC(O)C4)c(C#N)c3c2=O)c2scc(C(=O)O)c2n1 (stereo not drawn) [compound 1235]
IC50 [1]: < 0.05 µM | IC50 [3]: 0.00632 µM

Cc1nc2cc(C(F)(F)F)cc(C#N)c2c(=O)n1CCOc1ccc(Cl)cc1-c1cccc(C(=O)O)c1C#N [compound 168]
IC50 [1]: < 0.05 µM | IC50 [2]: 0.0372 µM

Cc1nc2cc(C(F)(F)F)c(N3CCN(C)CC3)c(C#N)c2c(=O)n1CCOc1ccc(Cl)cc1-c1ccnc2cc(Cl)sc12 [compound 1246]
IC50 [1]: 0.05 to 1 µM | IC50 [3]: 0.106 µM

N#Cc1cc2c(=O)n(CCOc3ccc(Cl)cc3-c3ccnc4c(C(=O)O)csc34)cnc2cn1 [compound 30]
IC50 [1]: 0.05 to 1 µM | IC50 [2]: 0.164 µM

Cc1nc2cnc(N3CCN(CC(F)F)CC3)c(C#N)c2c(=O)n1CCOc1ccc(Cl)cc1-c1ccnc2c(C(=O)O)csc12 [compound 1303]
IC50 [3]: 0.0366 µM

Cc1nc2cnc(N(C)C3CCN(CC(F)(F)F)CC3)c(C#N)c2c(=O)n1CC#Cc1ccc(Cl)cc1-c1ccnc2c(C(=O)NS(=O)(=O)c3cscn3)csc12 [compound 1675]
IC50 [3]: 0.00411 µM

Cc1nc2cc(C(F)(F)F)c(N3CCN(C)CC3)c(C#N)c2c(=O)n1CCOc1ccc(Cl)cc1-c1cc(CF)nc2ccsc12 [compound 1253]
IC50 [3]: 0.0084 µM

Cc1nc2cc(C(F)(F)F)c(C3CCN(C)CC3)cc2c(=O)n1CCOc1ccc(Cl)cc1-c1ccnc2c(C(=O)O)csc12 [compound 881]
IC50 [1]: < 0.05 µM | IC50 [2]: 0.0204 µM

Cc1cc(-c2cc(Cl)ccc2OCCn2c(C)nc3cnc(-c4cc(Cl)ccc4C)c(C#N)c3c2=O)c2scc(C(=O)O)c2n1 [compound 953]
IC50 [1]: < 0.05 µM | IC50 [2]: 0.0134 µM

Cc1cc(-c2cc(Cl)ccc2OCCn2c(C)nc3cc(C(F)(F)F)c(Cl)nc3c2=O)c2scc(C(=O)O)c2n1 [compound 1978]
IC50 [3]: 0.0253 µM

Cc1nc2c(C#N)nc(C#N)cc2c(=O)n1CCOc1ccc(Cl)cc1-c1cccc(C(=O)O)c1 [compound 1997]
IC50 [3]: 0.0775 µM

Cc1nc2cnc(N(C)c3ccncc3)c(C#N)c2c(=O)n1CC#Cc1ccc(Cl)cc1-c1ccnc2c(C(=O)O)csc12 [compound 1569]
IC50 [3]: 0.0195 µM

CONC(=O)c1csc2c(-c3cc(Cl)ccc3OCCn3c(C)nc4c(F)cc(C(F)F)c(C#N)c4c3=O)ccnc12 [compound 303]
IC50 [1]: 0.05 to 1 µM

O=C(O)c1cccc(-c2cc(Cl)ccc2OCCn2ccc3ncncc3c2=O)c1 [compound 14]
IC50 [1]: > 1 µM | IC50 [2]: > 3 µM

Cc1nc2cnc(N3CCN(CC(F)F)C4CC43)c(C#N)c2c(=O)n1CCOc1ccc(Cl)cc1-c1ccnc2c(C(=O)O)csc12 (stereo not drawn) [compound 824]
IC50 [1]: < 0.05 µM | IC50 [2]: 0.0136 µM

Cc1cc(-c2cc(Cl)ccc2OCCn2c(C)nc3cc(C(F)(F)F)c(-c4cncc(C(F)(F)F)n4)c(C#N)c3c2=O)c2scc(C(=O)O)c2n1 [compound 1026]
IC50 [1]: < 0.05 µM | IC50 [2]: 0.0155 µM

CCS(=O)(=O)NC(=O)c1csc2c(-c3cc(Cl)ccc3C#CCn3c(C)nc4cnc(N(C)C5CCN(C6CC(F)(F)C6)CC5)c(C#N)c4c3=O)ccnc12 [compound 1807]
IC50 [3]: 0.0104 µM

Cc1cc(-c2cc(Cl)ccc2OCCn2c(C)nc3cnc(N(C)C)c(C#N)c3c2=O)c2scc(C(=O)O)c2n1 [compound 791]
IC50 [1]: < 0.05 µM | IC50 [2]: 0.00359 µM

Cc1nc2cc(S(C)(=O)=O)c(F)c(C#N)c2c(=O)n1CCOc1ccc(Cl)cc1-c1ccnc2c(C(=O)O)csc12 [compound 278]
IC50 [1]: < 0.05 µM | IC50 [2]: 0.0127 µM

Cc1cc(-c2cc(Cl)ccc2OCCn2c(C)nc3cc(C(F)(F)F)c(N4CCN(C)CC4)nc3c2=O)c2scc(C(=O)O)c2n1 [compound 676]
IC50 [1]: < 0.05 µM | IC50 [2]: 0.00622 µM

Cc1nc2cc(C(F)(F)F)c(Cl)c(C#N)c2c(=O)n1CC#Cc1ccc(Cl)cc1-c1ccnc2c(C(=O)O)csc12 [compound 554]
IC50 [1]: < 0.05 µM | IC50 [2]: 0.0318 µM

Cc1nc2cnc(N3CCN(C4CC(F)(F)C4)CC3)c(C#N)c2c(=O)n1CC#Cc1ccc(Cl)cc1-c1ccnc2c(C(=O)O)csc12 [compound 1163]
IC50 [1]: < 0.05 µM | IC50 [2]: 0.0248 µM

Cc1nc2cc(C(F)(F)F)c(N3CCN(CCC(F)(F)F)CC3)c(C#N)c2c(=O)n1CCCc1ccc(Cl)cc1-c1ccnc2c(C(=O)O)csc12 [compound 1156]
IC50 [1]: < 0.05 µM | IC50 [2]: 0.0351 µM

Cc1nc2cnc(N(C)C3COC3)c(C#N)c2c(=O)n1CC#Cc1ccc(Cl)cc1-c1ccnc2c(C(=O)O)csc12 [compound 1534]
IC50 [3]: 0.0158 µM

Cc1ncc(F)cc1-c1c(C(F)(F)F)cc2nc(C)n(CCOc3ccc(Cl)cc3-c3ccnc4ccsc34)c(=O)c2c1C#N [compound 706]
IC50 [1]: 0.05 to 1 µM

Cc1nc2cnc(N3CC4(C3)CN(C3COC3)C4)c(C#N)c2c(=O)n1CC#Cc1ccc(Cl)cc1-c1ccnc2c(C(=O)O)csc12 [compound 1322]
IC50 [3]: 0.0112 µM

Cc1nc2c(F)cc(C(F)F)c(C#N)c2c(=O)n1CCOc1ccc(Cl)cc1-c1ccnc2c(C(=O)NS(C)(=O)=O)csc12 [compound 1945]
IC50 [3]: 0.0449 µM

Cc1nc2cnc(N3CCN4CC(F)(F)CC4C3)c(C#N)c2c(=O)n1CCOc1ccc(Cl)cc1-c1ccnc2c(C(=O)O)csc12 (stereo not drawn) [compound 1311]
IC50 [3]: 0.0133 µM

Cc1nc2cnc(N3CC(N4CC(F)(F)C4)C3)c(C#N)c2c(=O)n1CCOc1ccc(Cl)cc1-c1ccnc2c(C(=O)O)csc12 [compound 1341]
IC50 [3]: 0.0215 µM

Cc1cc(-c2cc(Cl)ccc2OCCn2c(C)nc3cc(C(F)(F)F)cc(C#N)c3c2=O)c2scc(C(=O)O)c2c1F [compound 333]
IC50 [2]: 0.0249 µM

Cc1cccc(-c2c(Cl)cc3nc(C)n(CCOc4ccc(Cl)cc4-c4cc(C)nc5c(C(=O)O)c(C)sc45)c(=O)c3c2C#N)n1 [compound 683]
IC50 [1]: < 0.05 µM | IC50 [2]: 0.0403 µM

Cc1cc(-c2cc(Cl)ccc2OCCn2c(C)nc3cc(Cl)c(N4CCC4)c(C#N)c3c2=O)c2scc(C(=O)O)c2n1 [compound 752]
IC50 [1]: < 0.05 µM | IC50 [2]: 0.0276 µM

CSC1CN(c2c(Cl)cc3nc(C)n(CCOc4ccc(Cl)cc4-c4cc(C)nc5c(C(=O)O)csc45)c(=O)c3c2C#N)C1 [compound 704]
IC50 [1]: 0.05 to 1 µM | IC50 [2]: 0.089 µM
